# Results reported in patent US8143374B2, “Polypeptide derivatives of parathyroid hormone (PTH)” (The General Hospital Corporation, priority 2006, dated 2012).
# Like-named read-outs stand apart in the source and are kept apart here. Where a SMILES comes first, the peptide text is derived from it. Where no end group is shown, it is not given here. [ ]: non-standard residue; d: D form. Cha = N[C@@H](CC1CCCCC1)C(=O)O; Nle = CCCC[C@H](N)C(=O)O
# Legend:
# PTHR-delNt = molecular target: T1, PTHR-delNt (Homo sapiens, UniProt Q03431, DEL24-181); assay: Competition binding in COS-7 cell membranes with 125I-[Aib1,3,M]PTH(1-15)NH2 tracer; conditions: for reduction (alteration) of binding affinity for PTHR-delNt relative to parent peptide: versus the respective parent peptide; for IC50: COS-7 membranes cotransfected with negative-dominant Gαs, read-out: PTHR-delNT (COS-7) IC50
# T1 construct: expressed in transfected cells; host or cells: COS-7 cells, transient co-transfection; membranes prepared
# T1 sequence (Q03431 with tags, fused parts or gaps DEL24-181): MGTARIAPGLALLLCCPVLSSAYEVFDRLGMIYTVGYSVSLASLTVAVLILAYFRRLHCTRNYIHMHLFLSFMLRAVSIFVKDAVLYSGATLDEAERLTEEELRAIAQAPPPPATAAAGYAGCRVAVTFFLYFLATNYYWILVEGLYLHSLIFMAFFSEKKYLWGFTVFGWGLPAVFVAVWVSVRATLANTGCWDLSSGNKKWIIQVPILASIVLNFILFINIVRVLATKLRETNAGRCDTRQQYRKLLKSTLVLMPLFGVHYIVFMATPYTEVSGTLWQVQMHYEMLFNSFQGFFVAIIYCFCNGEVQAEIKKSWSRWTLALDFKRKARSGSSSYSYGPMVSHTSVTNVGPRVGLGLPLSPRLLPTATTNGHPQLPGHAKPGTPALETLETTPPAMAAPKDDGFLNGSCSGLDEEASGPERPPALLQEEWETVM
# Description: PTHR-delNt is a derivative of the human PTHR that is deleted for most (Ala^24-Arg^181) of the amino-terminal extracellular domain (Shimizu, M., et al. (2001) Endocrinology 142:3068-3074). This PTHR construct was expressed in COS-7 cells via transient DNA transfection. For cAMP assays, the cells were transfected in 24-well plates using 0.2 μg of plasmid DNA and 0.6 μl of Fugene-6 reagent (Roche Diagnostics, Indianapolis Ind.) per well, and assays were performed on the intact cells three to four days after transfection. For binding assays, cell membranes were prepared from transfected COS-7 cells. To increase the maximal binding of ^125I-[Aib^1,3,M]PTH(1-15)NH2 to PTHR-delNt in these membranes, the cells were cotransfected with a negative dominant mutant Gαs protein (Gαs^ND). This mutant Gαs subunit is thought to couple to cognate receptors, and thus stabilize high affinity receptor conformations, more efficiently than does wild-type Gαs, without increasing basal cAMP levels (Berlot, C. H. (2002) J Biol Chem 277:21080-5). A precursor of this mutant Gαs, Gαs(α3β5), was recently used to increase binding of ^125I-[Aib^1,3,M]PTH(1-15)NH2 to PTHR-delNt in COS-7 cell membranes (Dean, T., (2006) Mol Endocrinol 20:931-942). Gαs^ND, which contains the same five amino acid replacement of corresponding Gαi residues in the α3β5 loop as Gαs(α3β5), plus the point mutations of Gly^226 to Ala, which increases affinity for Gβ/γ, and Ala^366 to Ser, which decreases affinity for GDP, yields approximately two-fold higher levels of specific binding of ^125I-[Aib^1,3,M]PTH(1-15)NH2 than does Gαs(α3β5) (data not shown). For the current membrane preparations, COS-7 cells were co-transfected in six-well plates using 1 μg of each plasmid DNA encoding PTHR-delNt and Gαs^ND, and 6 μl of Fugene-6 reagent (Roche Diagnostics, Indianapolis Ind.) per well. Cells were harvested three days after transfection, and membranes were prepared as described (Dean, T., et al. (2006) Mol Endocrinol 20:931-942).
# Receptor binding—Binding to the wild-type human PTHR in intact HKRK-B7 cells and ROS 17/2.8 cells was assessed using ^125I-PTH(1-34) as a tracer radioligand, as described (Shimizu, M., (2001) Endocrinology 142:3068-3074). In brief, the cells in 24-well plates (about 500,000 cells per well) were incubated in binding buffer containing radioligand (about 100,000 cpm per well) with or without unlabeled peptide ligand (3×10^−9 to 1×10^−5 M) for four hours at 15° C. The binding mixture was then removed by aspiration, the cells were rinsed three times with binding buffer, lysed in 1 M NaOH, and the entire lysate was counted for gamma-irradiation in a gamma counter. Binding to PTHR-delNt in COS-7 cell membranes was assessed in 96-well, vacuum filtration plates (Multiscreen-Durapore HV, […] membranes, Millipore Corp., Millford, Mass.) using ^125I-[Aib^1,3,M]PTH(1-15)NH2 as a tracer radioligand, as described (Dean, T., (2006) Mol Endocrinol 20:931-942). In brief, cell membranes (20 μg/well) were incubated in membrane binding buffer containing radioligand (30,000 cpm/well) with or without unlabeled peptide ligand (3×10^−9 to 1×10^−5 M) for 90 minutes at 21° C. The plates were then subject to rapid vacuum filtration, the filters were washed once with buffer, detached from the plate and counted for gamma-irradiation in a gamma counter. Non-specific binding was defined as the binding observed in the presence of 1×10^−6 M PTH(1-31)NH2 for HKRK-B7 and ROS 17/2.8 cells, and 1×10^−6 M [Aib^1,3,M]PTH(1-15)NH2 for PTHR-delNt. Specifically bound radioactivity was calculated as a percentage of the radioactivity specifically bound in the absence of competing ligand. […]
# [1] = Circular dichroism spectroscopy, helical residues per peptide chain; format: physicochemical; conditions: calculated from [θ]222
# Description: Circular Dichroism—CD spectra were obtained on a JASCO J-600 spectropolarimeter at 20° C. Four spectra were averaged and the data smoothed by the JASCO software. The instrument was calibrated with ammonium (+)-10-camphorsulfonate. Peptide concentrations were verified from the absorption at 280 nm, using an extinction coefficient of 5700 M^−1 for the single tryptophan. Data are expressed as the number of helical residues per peptide chain, as calculated from −[θ]222×30/28,000, where [θ]222 is the mean residue elipticity ([θ]) at 222 nm, as was described previously (Barbier, J. R., et al. (2005) J Biol Chem. 280:23771-23777).
# [2] = [Ala1,Arg19]hPTH(1-31)NH2 analogs
reduction (alteration) of binding affinity for PTHR-delNt relative to parent peptide (PTHR-delNt; COS-7 membranes),IC50 (PTHR-delNt; [2]) [nM],"CD helical residues [1, 2]",IC50 (PTHR-delNt; hPTH(1-31)NH2 analogs) [nM],CD helical residues ([1]; hPTH(1-31)NH2 analogs),Molecule,effect on binding to PTHR-delNt (in words) (PTHR-delNt; COS-7 membranes)
approximately five- to seven-fold,1870 ± 281,6,,,CC[C@H](C)[C@H](NC(=O)[C@H](CCC(=O)O)NC(=O)[C@H](CO)NC(=O)[C@@H](NC(=O)[C@H](C)N)C(C)C)C(=O)N[C@@H](CCC(N)=O)C(=O)N[C@@H](CC(C)C)C(=O)N[C@@H](CCSC)C(=O)N[C@@H](Cc1c[nH]cn1)C(=O)N[C@@H](CC(N)=O)C(=O)N[C@@H](CC(C)C)C(=O)NCC(=O)N[C@@H](CCCCN)C(=O)N[C@@H](Cc1c[nH]cn1)C(=O)N[C@@H](CC(C)C)C(=O)N[C@@H](CC(N)=O)C(=O)N[C@@H](CO)C(=O)N[C@@H](CCSC)C(=O)N[C@@H](CCCNC(=N)N)C(=O)N[C@@H](CCCNC(=N)N)C(=O)N[C@H](C(=O)N[C@@H](CCC(=O)O)C(=O)N[C@@H](Cc1c[nH]c2ccccc12)C(=O)N[C@@H](CC(C)C)C(=O)N[C@@H](CCCNC(=N)N)C(=O)N[C@@H](CC1CCCCC1)C(=O)N[C@@H](CCCCN)C(=O)N[C@@H](CC(C)C)C(=O)N[C@@H](CCC(N)=O)C(=O)N[C@@H](CC(=O)O)C(=O)N[C@H](C(N)=O)C(C)C)C(C)C [Lys^26→Cha] (H-AVSEIQLMHNLGKHLNSMRRVEWLR[Cha]KLQDV-NH2; N-terminus assumed),
,126 ± 45,8,,,CC[C@H](C)[C@H](NC(=O)[C@H](CCC(=O)O)NC(=O)[C@H](CO)NC(=O)[C@@H](NC(=O)[C@H](C)N)C(C)C)C(=O)N[C@@H](CCC(N)=O)C(=O)N[C@@H](CC(C)C)C(=O)N[C@@H](CCSC)C(=O)N[C@@H](Cc1c[nH]cn1)C(=O)N[C@@H](CC(N)=O)C(=O)N[C@@H](CC(C)C)C(=O)NCC(=O)N[C@@H](CCCCN)C(=O)N[C@@H](Cc1c[nH]cn1)C(=O)N[C@@H](CC(C)C)C(=O)N[C@@H](CC(N)=O)C(=O)N[C@@H](CO)C(=O)N[C@@H](CCSC)C(=O)N[C@@H](CCCNC(=N)N)C(=O)N[C@@H](CCCNC(=N)N)C(=O)N[C@H](C(=O)N[C@@H](CC1CCCCC1)C(=O)N[C@@H](Cc1c[nH]c2ccccc12)C(=O)N[C@@H](CC(C)C)C(=O)N[C@@H](CCCNC(=N)N)C(=O)N[C@@H](CCCCN)C(=O)N[C@@H](CCCCN)C(=O)N[C@@H](CC(C)C)C(=O)N[C@@H](CCC(N)=O)C(=O)N[C@@H](CC(=O)O)C(=O)N[C@H](C(N)=O)C(C)C)C(C)C [Glu^22→Cha] (H-AVSEIQLMHNLGKHLNSMRRV[Cha]WLRKKLQDV-NH2; N-terminus assumed),
less than three-fold,434 ± 84,7,,,AVSEIQLMHNLGKHLNSMRRVEELRKKLQDV-NH2 [Trp^23→Glu],only mildly impaired binding to PTHR-delNt
,780 ± 83,10,,,CC[C@H](C)[C@H](NC(=O)[C@H](CCC(=O)O)NC(=O)[C@H](CO)NC(=O)[C@@H](NC(=O)[C@H](C)N)C(C)C)C(=O)N[C@@H](CCC(N)=O)C(=O)N[C@@H](CC(C)C)C(=O)N[C@@H](CCSC)C(=O)N[C@@H](Cc1c[nH]cn1)C(=O)N[C@@H](CC(N)=O)C(=O)N[C@@H](CC(C)C)C(=O)NCC(=O)N[C@@H](CCCCN)C(=O)N[C@@H](Cc1c[nH]cn1)C(=O)N[C@@H](CC(C)C)C(=O)N[C@@H](CC(N)=O)C(=O)N[C@@H](CO)C(=O)N[C@@H](CCSC)C(=O)N[C@@H](CC1CCCCC1)C(=O)N[C@@H](CCCNC(=N)N)C(=O)N[C@H](C(=O)N[C@@H](CCC(=O)O)C(=O)N[C@@H](Cc1c[nH]c2ccccc12)C(=O)N[C@@H](CC(C)C)C(=O)N[C@@H](CCCNC(=N)N)C(=O)N[C@@H](CCCCN)C(=O)N[C@@H](CCCCN)C(=O)N[C@@H](CC(C)C)C(=O)N[C@@H](CCC(N)=O)C(=O)N[C@@H](CC(=O)O)C(=O)N[C@H](C(N)=O)C(C)C)C(C)C [Arg^19→Cha] (H-AVSEIQLMHNLGKHLNSM[Cha]RVEWLRKKLQDV-NH2; N-terminus assumed),
,319 ± 57,8,,,CC[C@H](C)[C@H](NC(=O)[C@H](CCC(=O)O)NC(=O)[C@H](CO)NC(=O)[C@@H](NC(=O)[C@H](C)N)C(C)C)C(=O)N[C@@H](CCC(N)=O)C(=O)N[C@@H](CC(C)C)C(=O)N[C@@H](CCSC)C(=O)N[C@@H](Cc1c[nH]cn1)C(=O)N[C@@H](CC(N)=O)C(=O)N[C@@H](CC(C)C)C(=O)NCC(=O)N[C@@H](CCCCN)C(=O)N[C@@H](Cc1c[nH]cn1)C(=O)N[C@@H](CC(C)C)C(=O)N[C@@H](CC(N)=O)C(=O)N[C@@H](CO)C(=O)N[C@@H](CCSC)C(=O)N[C@@H](CCCNC(=N)N)C(=O)N[C@@H](CCCNC(=N)N)C(=O)N[C@H](C(=O)N[C@@H](CCC(=O)O)C(=O)N[C@@H](Cc1c[nH]c2ccccc12)C(=O)N[C@@H](CC(C)C)C(=O)N[C@@H](CCCNC(=N)N)C(=O)N[C@@H](CCCCN)C(=O)N[C@@H](CCCCN)C(=O)N[C@@H](CC(C)C)C(=O)N[C@@H](CC1CCCCC1)C(=O)N[C@@H](CC(=O)O)C(=O)N[C@H](C(N)=O)C(C)C)C(C)C [Gln^29→Cha] (H-AVSEIQLMHNLGKHLNSMRRVEWLRKKL[Cha]DV-NH2; N-terminus assumed),
,,,10700,12,CCCC[C@H](NC(=O)[C@H](CCC(=O)O)NC(=O)[C@H](CCSC)NC(=O)[C@H](CO)NC(=O)[C@H](CC(N)=O)NC(=O)[C@H](CC(C)C)NC(=O)[C@H](Cc1c[nH]cn1)NC(=O)[C@H](CCCCN)NC(=O)CNC(=O)[C@H](CC(C)C)NC(=O)[C@H](CC(N)=O)NC(=O)[C@H](Cc1c[nH]cn1)NC(=O)[C@H](CCSC)NC(=O)[C@H](CC(C)C)NC(=O)[C@H](CCC(N)=O)NC(=O)[C@@H](NC(=O)[C@H](CCC(=O)O)NC(=O)[C@H](CO)NC(=O)[C@@H](NC(=O)[C@@H](N)CO)C(C)C)[C@@H](C)CC)C(=O)N[C@H](C(=O)N[C@@H](CCC(=O)O)C(=O)N[C@@H](Cc1c[nH]c2ccccc12)C(=O)N[C@@H](CC(C)C)C(=O)N[C@@H](CCCNC(=N)N)C(=O)N[C@@H](CCCCN)C(=O)N[C@@H](CCCCN)C(=O)N[C@@H](CC(C)C)C(=O)N[C@@H](CCC(N)=O)C(=O)N[C@@H](CC(=O)O)C(=O)N[C@H](C(N)=O)C(C)C)C(C)C [Arg^20→Nle] (H-SVSEIQLMHNLGKHLNSME[Nle]VEWLRKKLQDV-NH2; N-terminus assumed),
